Experimental data published in patent US20080242669A1, “METHODS RELATING TO THE TREATMENT OF FIBROTIC DISORDERS” (UNIVERSITY OF WASHINGTON, priority 2005, published 2008).

Columns and labels:
Aquaporin 5 = Aquaporin 5 immunostaining of lung tissue in bleomycin mouse model; format: in vivo; conditions: bleomycin and ICG-001 vs bleomycin alone
Method: The aquaporins are water channels expressed in a variety of cell types. Aquaporin 5 is involved in the transportation of water across the apical surface of the alveolar epithelium and the epithelia of the submucosal glands in the upper airway and nasopharynx. (Krane, C. M., P.N.A.S. 98:14192-4, 2001; Yang, F. J. Biol. Chem. 278:32173-80, 2003). Because aquaporin 5 is a marker of Type 1 (differentiated) lung epithelium, its expression was assayed in lung tissue treated with bleomycin (FIG. 22A), bleomycin and ICG-001 (FIG. 22B), and saline (FIG. 22C), using the animal model as described in Example 2 (FIG. 15), and immunostaining with an antibody specific for Aquaporin 5.

[1] = test system: bleomycin induced fibrosis; experiment: Bleomycin induced murine pulmonary fibrosis model (lung sections stained for collagen, body weight, survival); format: in vivo, mouse
Method: Murine models of bleomycin induced fibrosis have been developed in order to study fibrotic disease progression.
There is an absence of airway epithelium in lower left compared to upper left (see arrow heads) and extensive collagen deposition (lower left). On the sixth day, either saline (upper right) or ICG-001 (5 mgs/Kg/day) was administered for 10 days after which the mice were sacrificed and sectioned. Of interest is the upper right (saline treatment) showing lack of normal airway epithelialization, extensive collagen deposition and intra-airway hypercellularity (fibroblasts and inflammatory influx).
FIGS. 16 and 17 show RT-PCR data for S100A4 (FIG. 16) and collagen1A2 (FIG. 17), which are increased in the bleomycin treated mice (treated with saline control).
The procedures were performed using the animal model as described in Example 2 (FIG. 15), and the sectioned lungs were stained for collagen.

S100A4 (FSP-1) = experiment: Western blot for S100A4 on whole cell lysates of IPF patient fibroblasts; format: cell-based, human; conditions: IPF patient fibroblasts / ATCC IPF cells, RPMI1640+10% FBS, 2 days
Method: (§1) Western blots for S100A4 (also know as FSP-1 or fibroblast specific protein-1) and E-Cadherin were performed on whole cell lysates (FIG. 20).

[2] = test system: TCF/β-Catenin driven β-Galactosidase expression; experiment: TCF/β-catenin driven β-galactosidase reporter in lungs of bleomycin-treated Bat-Gal transgenic mice (X-Gal staining); format: in vivo, mouse; conditions: intratracheal bleomycin, 5 mg/Kg/day via minipump (subcutaneously)
Method: Using this murine model of pulmonary fibrosis in transgenic Bat-Gal mice, ICG-001 (5 mg/Kg/day, administered via minipump) blocked >95% of bleomycin-induced TCF/O-catenin transcription.
These mice have a Beta-Galactosidase transgene driven by a TCF/Catenin driven promoter (i.e. a read out for activated Wnt/catenin signaling). The mice were given intratracheal saline or bleomycin and either treated with ICG-001 (5 mgs/Kg/day subcutaneously) or saline as vehicle control. The mice were sacrificed and the lungs sectioned and stained with X-Gal (blue color) A) intratracheal bleo+saline. B) intracheal bleo+ICG-001 C) saline+saline.
The dose was selected because ICG-001 reduces TCF/β-Catenin driven β-Galactosidase expression >95% at 5 mgs/Kg/day.

E-Cadherin = experiment: Western blot for E-Cadherin on whole cell lysates of IPF patient fibroblasts; format: cell-based, human; conditions: RPMI1640+10% FBS, 2 days
Method: as §1

[3] = C57/B16 mice, bleomycin 5 days, then 5 mgs/Kg/day for 10 days
[4] = bleomycin and ICG-001 vs bleomycin
[5] = bleomycin model, 5 mg/Kg/day via minipump

O=C1[C@H](Cc2ccc(O)cc2)N2C(=O)CCN(C(=O)NCc3ccccc3)[C@H]2CN1Cc1cccc2ccccc12 [ICG-001]
aquaporin 5 expression in lung tissue (immunostaining) (Aquaporin 5): greatly increased | airway appearance in trichrome stained lung sections [1, 3]: essential normal | body weight [1, 3]: regained normal body weight | collagen levels in trichrome stained lung sections [1, 3]: normal collagen levels | survival ([1]; C57/B16 mice, bleomycin 5 days, then 5 mgs/Kg/day for 10 days, untreated controls did not survive): survived | alveolar fibrosis (lungs stained for collagen) [1, 4]: prevented | interstitial fibrosis (lungs stained for collagen) [1, 4]: prevented | disease progression, as judged by mortality, histopathology and endogenous gene expression [1, 5]: not only halted but reversed | mortality [1, 5]: reduced | fibrosis over the 25 days of treatment ([1]; bleomycin model, 25 days of treatment): reversed fibrosis | S100A4 expression (Western blot) (S100A4 (FSP-1)): decreased | block of bleomycin-induced TCF/β-catenin transcription (β-Galactosidase expression) [2]: > 95% | E-cadherin expression (Western blot; also mRNA level) (E-Cadherin): increased
